ChEMBL document CHEMBL4414548 (J Med Chem, 2019)

What was measured:
[1] = Cmax in Balb/c mouse assessed as 6-((5-Fluoropyridin-2-yl)amino)-4-((2-(methylsulfonyl)phenyl)amino)nicotinamide level at 3 mg/kg, iv after 1 hr; assay type: ADME, organism-based; set-up: dose 3 mg/kg, route intravenous; details: in vivo
[2] = Drug concentration in Balb/c mouse at 3 mg/kg, iv after 0.5 hrs; assay type: ADME, organism-based; details: in vivo, read-out: Drug uptake
[3] = Partition coefficient, log P of compound by HPLC analysis; assay type: physicochemical; details: octanol/water
[4] = Cmax in Balb/c mouse assessed as 6-((5-Fluoropyridin-2-yl)amino)-4-((2-(methylsulfonyl)phenyl)amino)nicotinamide level at 10 mg/kg, po after 1 hr; assay type: ADME, organism-based; set-up: dose 10 mg/kg, route oral; details: in vivo
[5] = Cmax in Balb/c mouse assessed as 6-((5-Fluoropyridin-2-yl)amino)-4-((2-(methylsulfonyl)phenyl)amino)nicotinamide level at 3 mg/kg, iv after 3 hrs; assay type: ADME, organism-based; set-up: dose 3 mg/kg, route intravenous; details: in vivo
[6] = Cmax in Balb/c mouse assessed as 6-((5-Fluoropyridin-2-yl)amino)-4-((2-(methylsulfonyl)phenyl)amino)nicotinamide level at 3 mg/kg, iv after 0.05 hrs; assay type: ADME, organism-based; set-up: dose 3 mg/kg, route intravenous; details: in vivo
[7] = Permeability across apical to basolateral side in human Caco2 cells; assay type: ADME, cell-based; details: Caco-2, read-out: permeability
[8] = molecular target: Mast/stem cell growth factor receptor Kit (Homo sapiens, UniProt P10721); assay: Inhibition of cKIT (unknown origin)
[9] = Metabolic stability in human liver microsomes assessed as parent compound remaining after 10 mins; assay type: ADME, Microsome; details: read-out: Stability
[10] = Efflux ratio of permeability in human Caco2; assay type: ADME, cell-based; details: Caco-2
[11] = AUClast in Balb/c mouse at 10 mg/kg, po; assay type: ADME, organism-based; set-up: dose 10 mg/kg, time 0 - last, route oral; details: in vivo
JAK3/JAK1 = JAK3/JAK1 (Homo sapiens, UniProt P23458+P52333); assay: Inhibition of JAK1/JAK3 (unknown origin) in IL-2 stimulated cells by cell based assay
[12] = Cmax in Balb/c mouse assessed as 6-((5-Fluoropyridin-2-yl)amino)-4-((2-(methylsulfonyl)phenyl)amino)nicotinamide level at 3 mg/kg, iv after 5 hrs; assay type: ADME, organism-based; set-up: dose 3 mg/kg, route intravenous; details: in vivo
[13] = Drug concentration in Balb/c mouse at 3 mg/kg, iv after 1 hr; assay type: ADME, organism-based; details: in vivo, read-out: Drug uptake
[14] = molecular target: T1, Voltage-gated inwardly rectifying potassium channel KCNH2 (Homo sapiens, UniProt Q12809); assay: Inhibition of human ERG by patch clamp assay
[15] = molecular target: T1, Voltage-gated inwardly rectifying potassium channel KCNH2; assay: Inhibition of human ERG by fluorescence polarization assay
[16] = AUClast in Balb/c mouse at 3 mg/kg, iv; assay type: ADME, organism-based; set-up: dose 3 mg/kg, route intravenous, time 0 - last; details: in vivo
[17] = Drug concentration in Balb/c mouse at 10 mg/kg, po after 5 hrs; assay type: ADME, organism-based; details: in vivo, read-out: Drug uptake
[18] = molecular target: T2, Non-receptor tyrosine-protein kinase TYK2 (Homo sapiens, UniProt P29597); assay: Inhibition of fluorescein-labeled kinase tracer binding to His-TVMV-fused TYK2 JH2 domain (575 to 869 residues) (unknown origin) measured after 90 mins by HTRF assay
[19] = molecular target: Tyrosine-protein kinase JAK1 (Homo sapiens, UniProt P23458); assay: Inhibition of JAK1 JH1 domain (unknown origin)
[20] = Cmax in Balb/c mouse assessed as 6-((5-Fluoropyridin-2-yl)amino)-4-((2-(methylsulfonyl)phenyl)amino)nicotinamide level at 10 mg/kg, po after 0.05 hrs; assay type: ADME, organism-based; set-up: dose 10 mg/kg, route oral; details: in vivo
[21] = Clearance in Balb/c mouse at 3 mg/kg, iv; assay type: ADME, organism-based; details: in vivo
[22] = AUClast in Balb/c mouse assessed as 6-((5-Fluoropyridin-2-yl)amino)-4-((2-(methylsulfonyl)phenyl)amino)nicotinamide level at 3 mg/kg, iv; assay type: ADME, organism-based; set-up: dose 3 mg/kg, route intravenous, time 0 - last; details: in vivo
[23] = Cmax in mouse at 10 mg/kg, po; assay type: ADME, organism-based; set-up: dose 10 mg/kg, route oral; details: in vivo
[24] = molecular target: 3',5'-cyclic-AMP phosphodiesterase 4D (Homo sapiens, UniProt Q08499); assay: Inhibition of [3H]cAMP binding to recombinant human His-Tb fused PDE4D2 (86 to 413 residues) expressed in Escherichia coli using [3H]cAMP as substrate preincubated for 10 mins followed by [3H]cAMP addition and measured after 1 hr by scintillation proximity assay
JAK2/TYK2 = JAK2/TYK2 (Homo sapiens, UniProt O60674+P29597); assay: Inhibition of TYK2/JAK2 in IL23-stimulated human Kit225 cells by steady-glo luciferase assay
[25] = Drug concentration in Balb/c mouse at 10 mg/kg, po after 3 hrs; assay type: ADME, organism-based; details: in vivo, read-out: Drug uptake
[26] = molecular target: Tyrosine-protein kinase JAK2 (Homo sapiens, UniProt O60674); assay: Inhibition of JAK2 JH1 domain (unknown origin)
JAK2/JAK1 = JAK2/JAK1 (Homo sapiens, UniProt O60674+P23458); assay: Inhibition of JAK1/JAK2 (unknown origin) in GM-CSF stimulated cells by cell based assay
[27] = molecular target: T2, Non-receptor tyrosine-protein kinase TYK2; assay: Inhibition of TYK2 JH1 domain (unknown origin)
[28] = Drug concentration in Balb/c mouse at 10 mg/kg, po after 7 hrs; assay type: ADME, organism-based; details: in vivo, read-out: Drug uptake
[29] = Drug concentration in Balb/c mouse at 10 mg/kg, po after 0.5 hrs; assay type: ADME, organism-based; details: in vivo, read-out: Drug uptake
[30] = Drug concentration in Balb/c mouse at 3 mg/kg, iv after 0.05 hrs; assay type: ADME, organism-based; details: in vivo, read-out: Drug uptake
[31] = Oral bioavailability in Balb/c mouse at 10 mg/kg; assay type: ADME, organism-based; details: in vivo
[32] = Volume of distribution at steady state in Balb/c mouse at 3 mg/kg, iv; assay type: ADME, organism-based; details: in vivo, read-out: Vdss
[33] = molecular target: T2, Non-receptor tyrosine-protein kinase TYK2; assay: Inhibition of TYK2 JH2 domain in human whole blood assessed as inhibition of IFNalpha-induced STAT5 phosphorylation preincubated for 1 hr followed by IFNalpha stimulation and measured after 15 mins by fluorescence assay; assay type: tissue-based
[34] = AUClast in Balb/c mouse assessed as 6-((5-Fluoropyridin-2-yl)amino)-4-((2-(methylsulfonyl)phenyl)amino)nicotinamide level at 10 mg/kg, po; assay type: ADME, organism-based; set-up: dose 10 mg/kg, time 0 - last, route oral; details: in vivo
[35] = Cmax in Balb/c mouse assessed as 6-((5-Fluoropyridin-2-yl)amino)-4-((2-(methylsulfonyl)phenyl)amino)nicotinamide level at 10 mg/kg, po after 7 hrs; assay type: ADME, organism-based; set-up: dose 10 mg/kg, route oral; details: in vivo
[36] = molecular target: Non-receptor tyrosine-protein kinase TYK2 (Mus musculus, UniProt Q9R117); assay: Inhibition of TYK2 JH2 domain in mouse whole blood assessed as inhibition of IFNalpha-induced STAT1 phosphorylation preincubated for 1 hr followed by IFNalpha stimulation and measured after 15 mins by fluorescence assay; assay type: tissue-based
[37] = Half life in Balb/c mouse at 3 mg/kg, iv; assay type: ADME, organism-based; details: in vivo
[38] = AUClast in mouse at 10 mg/kg, po; assay type: ADME, organism-based; set-up: dose 10 mg/kg, route oral, time 0 - last; details: in vivo
[39] = Cmax in Balb/c mouse assessed as 6-((5-Fluoropyridin-2-yl)amino)-4-((2-(methylsulfonyl)phenyl)amino)nicotinamide level at 3 mg/kg, iv after 7 hrs; assay type: ADME, organism-based; set-up: dose 3 mg/kg, route intravenous; details: in vivo
[40] = Drug concentration in Balb/c mouse at 10 mg/kg, po after 1 hr; assay type: ADME, organism-based; details: in vivo, read-out: Drug uptake
[41] = Drug concentration in Balb/c mouse at 3 mg/kg, iv after 7 hrs; assay type: ADME, organism-based; details: in vivo, read-out: Drug uptake
[42] = Drug concentration in Balb/c mouse at 10 mg/kg, po after 0.05 hrs; assay type: ADME, organism-based; details: in vivo, read-out: Drug uptake
[43] = Cmax in Balb/c mouse assessed as 6-((5-Fluoropyridin-2-yl)amino)-4-((2-(methylsulfonyl)phenyl)amino)nicotinamide level at 3 mg/kg, iv after 0.5 hrs; assay type: ADME, organism-based; set-up: dose 3 mg/kg, route intravenous; details: in vivo
[44] = Cmax in Balb/c mouse assessed as 6-((5-Fluoropyridin-2-yl)amino)-4-((2-(methylsulfonyl)phenyl)amino)nicotinamide level at 10 mg/kg, po after 5 hrs; assay type: ADME, organism-based; set-up: dose 10 mg/kg, route oral; details: in vivo
[45] = Metabolic stability in rat liver microsomes assessed as parent compound remaining after 10 mins; assay type: ADME, Microsome; details: read-out: Stability
[46] = Drug concentration in Balb/c mouse at 3 mg/kg, iv after 5 hrs; assay type: ADME, organism-based; details: in vivo, read-out: Drug uptake
[47] = Metabolic stability in mouse liver microsomes assessed as parent compound remaining after 10 mins; assay type: ADME, Microsome; details: read-out: Stability
[48] = Cmax in Balb/c mouse assessed as 6-((5-Fluoropyridin-2-yl)amino)-4-((2-(methylsulfonyl)phenyl)amino)nicotinamide level at 10 mg/kg, po after 3 hrs; assay type: ADME, organism-based; set-up: dose 10 mg/kg, route oral; details: in vivo
JAK1/TYK2 = JAK1/TYK2 (Homo sapiens, UniProt P23458+P29597); assay: Inhibition of TYK2/JAK1 in IFNalpha-stimulated human Kit225 cells by steady-glo luciferase assay
[49] = Drug concentration in Balb/c mouse at 3 mg/kg, iv after 3 hrs; assay type: ADME, organism-based; details: in vivo, read-out: Drug uptake
[50] = Cmax in Balb/c mouse assessed as 6-((5-Fluoropyridin-2-yl)amino)-4-((2-(methylsulfonyl)phenyl)amino)nicotinamide level at 10 mg/kg, po after 0.5 hrs; assay type: ADME, organism-based; set-up: dose 10 mg/kg, route oral; details: in vivo

T2 sequence (P29597 whole entry, the tested form may be a part): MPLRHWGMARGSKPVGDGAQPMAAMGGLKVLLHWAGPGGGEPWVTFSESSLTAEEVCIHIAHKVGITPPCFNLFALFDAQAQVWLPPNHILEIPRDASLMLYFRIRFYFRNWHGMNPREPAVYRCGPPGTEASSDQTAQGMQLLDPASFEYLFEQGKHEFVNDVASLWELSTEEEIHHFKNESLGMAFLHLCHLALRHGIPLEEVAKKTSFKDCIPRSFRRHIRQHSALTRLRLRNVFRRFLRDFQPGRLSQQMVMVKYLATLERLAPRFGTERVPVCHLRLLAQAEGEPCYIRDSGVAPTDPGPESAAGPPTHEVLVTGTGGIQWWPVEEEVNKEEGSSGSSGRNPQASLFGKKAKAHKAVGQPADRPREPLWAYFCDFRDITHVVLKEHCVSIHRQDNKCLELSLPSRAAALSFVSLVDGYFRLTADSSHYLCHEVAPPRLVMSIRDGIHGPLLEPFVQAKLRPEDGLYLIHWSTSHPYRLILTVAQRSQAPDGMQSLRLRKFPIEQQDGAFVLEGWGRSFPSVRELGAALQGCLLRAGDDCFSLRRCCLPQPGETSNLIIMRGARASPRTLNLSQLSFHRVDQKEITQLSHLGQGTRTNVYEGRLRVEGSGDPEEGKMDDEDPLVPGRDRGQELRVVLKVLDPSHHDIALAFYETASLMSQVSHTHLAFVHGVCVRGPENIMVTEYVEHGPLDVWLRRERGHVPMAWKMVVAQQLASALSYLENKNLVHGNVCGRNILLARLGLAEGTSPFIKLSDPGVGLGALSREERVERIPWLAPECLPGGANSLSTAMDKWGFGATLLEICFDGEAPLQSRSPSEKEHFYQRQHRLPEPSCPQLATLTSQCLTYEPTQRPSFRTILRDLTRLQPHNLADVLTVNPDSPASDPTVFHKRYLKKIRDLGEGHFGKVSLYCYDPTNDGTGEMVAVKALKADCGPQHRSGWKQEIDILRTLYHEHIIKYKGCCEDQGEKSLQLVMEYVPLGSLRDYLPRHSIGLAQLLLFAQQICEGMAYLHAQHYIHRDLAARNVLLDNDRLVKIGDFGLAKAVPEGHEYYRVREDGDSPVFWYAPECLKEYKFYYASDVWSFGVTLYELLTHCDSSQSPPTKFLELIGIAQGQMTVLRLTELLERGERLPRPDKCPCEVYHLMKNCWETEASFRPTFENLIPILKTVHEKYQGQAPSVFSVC
T1 sequence (Q12809 whole entry): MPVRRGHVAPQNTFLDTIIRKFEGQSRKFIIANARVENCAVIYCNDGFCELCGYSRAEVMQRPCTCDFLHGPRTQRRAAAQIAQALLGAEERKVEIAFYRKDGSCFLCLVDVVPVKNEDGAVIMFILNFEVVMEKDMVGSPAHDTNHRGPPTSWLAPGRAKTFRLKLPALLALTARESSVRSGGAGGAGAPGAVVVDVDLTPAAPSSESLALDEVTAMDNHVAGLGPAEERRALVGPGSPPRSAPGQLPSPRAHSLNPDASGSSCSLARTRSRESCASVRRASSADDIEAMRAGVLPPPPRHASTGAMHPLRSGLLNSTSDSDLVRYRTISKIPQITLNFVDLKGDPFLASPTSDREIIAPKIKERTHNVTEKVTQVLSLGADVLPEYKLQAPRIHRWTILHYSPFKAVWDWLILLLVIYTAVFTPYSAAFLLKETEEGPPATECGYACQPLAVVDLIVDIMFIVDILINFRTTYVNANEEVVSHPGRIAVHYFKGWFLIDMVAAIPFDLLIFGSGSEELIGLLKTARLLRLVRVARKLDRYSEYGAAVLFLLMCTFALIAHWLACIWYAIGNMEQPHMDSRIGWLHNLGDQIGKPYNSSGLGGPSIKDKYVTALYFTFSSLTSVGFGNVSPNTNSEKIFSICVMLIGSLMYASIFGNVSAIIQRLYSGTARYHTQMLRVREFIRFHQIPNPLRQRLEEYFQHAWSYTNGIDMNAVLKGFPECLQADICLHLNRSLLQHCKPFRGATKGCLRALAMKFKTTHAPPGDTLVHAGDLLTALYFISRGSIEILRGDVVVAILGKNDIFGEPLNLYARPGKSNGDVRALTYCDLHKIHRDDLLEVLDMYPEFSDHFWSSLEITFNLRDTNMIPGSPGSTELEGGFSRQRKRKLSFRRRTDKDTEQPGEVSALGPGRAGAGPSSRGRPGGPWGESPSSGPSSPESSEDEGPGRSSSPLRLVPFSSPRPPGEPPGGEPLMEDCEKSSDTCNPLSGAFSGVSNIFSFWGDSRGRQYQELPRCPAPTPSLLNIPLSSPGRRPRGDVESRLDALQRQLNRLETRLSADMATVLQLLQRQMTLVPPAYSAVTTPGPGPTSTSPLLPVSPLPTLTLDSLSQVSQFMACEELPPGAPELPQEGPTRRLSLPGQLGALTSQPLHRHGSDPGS
Mast/stem cell growth factor receptor Kit, sequence (P10721 whole entry): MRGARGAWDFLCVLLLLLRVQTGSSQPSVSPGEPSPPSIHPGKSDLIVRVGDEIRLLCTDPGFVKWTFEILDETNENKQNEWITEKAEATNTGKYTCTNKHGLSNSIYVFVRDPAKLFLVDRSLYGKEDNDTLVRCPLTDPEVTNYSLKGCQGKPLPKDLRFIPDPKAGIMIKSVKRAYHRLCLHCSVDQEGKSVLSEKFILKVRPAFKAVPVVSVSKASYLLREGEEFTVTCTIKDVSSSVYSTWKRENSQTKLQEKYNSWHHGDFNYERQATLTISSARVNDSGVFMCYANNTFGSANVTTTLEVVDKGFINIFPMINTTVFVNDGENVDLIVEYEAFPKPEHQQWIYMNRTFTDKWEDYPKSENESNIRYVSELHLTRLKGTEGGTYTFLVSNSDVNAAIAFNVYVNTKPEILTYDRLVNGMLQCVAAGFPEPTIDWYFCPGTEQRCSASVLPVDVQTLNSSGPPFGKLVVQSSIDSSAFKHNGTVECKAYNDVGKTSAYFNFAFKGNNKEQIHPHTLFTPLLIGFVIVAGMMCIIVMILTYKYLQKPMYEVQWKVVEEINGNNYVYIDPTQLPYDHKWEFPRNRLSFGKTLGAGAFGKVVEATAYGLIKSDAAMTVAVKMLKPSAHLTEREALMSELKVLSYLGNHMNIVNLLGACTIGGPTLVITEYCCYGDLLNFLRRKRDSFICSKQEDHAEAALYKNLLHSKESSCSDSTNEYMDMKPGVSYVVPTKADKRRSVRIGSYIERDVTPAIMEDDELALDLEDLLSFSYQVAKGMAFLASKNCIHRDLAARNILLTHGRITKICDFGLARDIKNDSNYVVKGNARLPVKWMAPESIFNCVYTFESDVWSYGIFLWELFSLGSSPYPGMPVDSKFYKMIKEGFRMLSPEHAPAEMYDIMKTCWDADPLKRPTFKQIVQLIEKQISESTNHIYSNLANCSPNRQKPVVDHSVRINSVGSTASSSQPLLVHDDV
Non-receptor tyrosine-protein kinase TYK2 (Mus musculus, UniProt Q9R117), sequence (Q9R117 whole entry, the tested form may be a part): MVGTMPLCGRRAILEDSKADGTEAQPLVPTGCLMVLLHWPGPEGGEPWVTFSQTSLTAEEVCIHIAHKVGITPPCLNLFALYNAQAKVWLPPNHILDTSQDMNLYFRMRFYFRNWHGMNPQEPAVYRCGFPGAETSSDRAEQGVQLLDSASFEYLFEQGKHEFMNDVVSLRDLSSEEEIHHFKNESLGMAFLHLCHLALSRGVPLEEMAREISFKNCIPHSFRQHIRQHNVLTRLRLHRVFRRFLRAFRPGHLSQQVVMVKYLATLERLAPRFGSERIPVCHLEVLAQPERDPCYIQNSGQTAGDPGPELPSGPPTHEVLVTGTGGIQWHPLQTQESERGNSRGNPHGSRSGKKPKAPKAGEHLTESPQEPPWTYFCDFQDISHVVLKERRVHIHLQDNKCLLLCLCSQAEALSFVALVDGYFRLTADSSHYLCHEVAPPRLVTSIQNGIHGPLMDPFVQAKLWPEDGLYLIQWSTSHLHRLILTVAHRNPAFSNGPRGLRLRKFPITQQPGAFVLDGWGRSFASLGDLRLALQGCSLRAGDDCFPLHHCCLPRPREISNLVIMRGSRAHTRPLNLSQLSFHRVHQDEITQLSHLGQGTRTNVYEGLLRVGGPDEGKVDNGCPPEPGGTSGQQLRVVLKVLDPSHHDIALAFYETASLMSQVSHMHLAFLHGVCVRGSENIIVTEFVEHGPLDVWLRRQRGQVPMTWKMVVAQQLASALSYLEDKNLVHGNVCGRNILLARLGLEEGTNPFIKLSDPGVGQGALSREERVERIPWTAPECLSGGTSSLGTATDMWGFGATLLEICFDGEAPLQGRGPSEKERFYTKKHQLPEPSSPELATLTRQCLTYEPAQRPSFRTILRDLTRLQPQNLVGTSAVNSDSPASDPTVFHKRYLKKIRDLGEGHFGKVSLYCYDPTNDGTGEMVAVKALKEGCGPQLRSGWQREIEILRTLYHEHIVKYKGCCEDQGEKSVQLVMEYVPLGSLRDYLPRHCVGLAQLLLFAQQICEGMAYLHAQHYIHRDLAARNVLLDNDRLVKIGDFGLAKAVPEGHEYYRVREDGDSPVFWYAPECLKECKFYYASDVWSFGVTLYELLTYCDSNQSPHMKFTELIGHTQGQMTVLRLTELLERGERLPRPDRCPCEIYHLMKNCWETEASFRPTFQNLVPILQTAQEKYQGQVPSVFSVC

SMILES: CNC(=O)c1cnc(Nc2ccc(F)cn2)cc1Nc1ccccc1S(C)(=O)=O
- Cmax [1]: 84 nM
- concentration at 0.5 h [2]: 2100 nM
- logP [3]: 2.61
- Cmax [4]: 21 nM
- Cmax [5]: 33 nM
- Cmax [6]: 51 nM
- Papp A→B [7]: 4.8 ×10⁻⁶ cm/s
- IC50 [8]: 100 nM
- remaining at 10 min [9]: 90%
- efflux ratio [10]: 10
- AUC(0-t) [11]: 8.1 µM·h
- IC50 (JAK3/JAK1): > 12500 nM
- Cmax [12]: 41 nM
- concentration at 1 h [13]: 2100 nM
- IC50 [14]: 2500 nM
- IC50 [15]: 25000 nM
- AUC(0-t) [16]: 7 µM·h
- concentration at 5 h [17]: 1400 nM
- IC50 [18]: 0.92 nM
- IC50 [19]: > 50000 nM
- Cmax [20]: 9.8 nM
- clearance [21]: 15 mL/min/kg
- AUClast [22]: 0.36 µM·h
- Cmax [23]: 1620 nM
- IC50 [24]: 4200 nM
- IC50 (JAK2/TYK2): 63 nM
- concentration at 3 h [25]: 1500 nM
- IC50 [26]: > 50000 nM
- IC50 (JAK2/JAK1): > 12500 nM
- IC50 [27]: > 50000 nM
- concentration at 7 h [28]: 450 nM
- concentration at 0.5 h [29]: 1400 nM
- concentration at 0.05 h [30]: 3500 nM
- bioavailability [31]: 35%
- Vd [32]: 2.8 L/kg
- IC50 [33]: 180 nM
- AUClast [34]: 0.2 µM·h
- Cmax [35]: 24 nM
- IC50 [36]: 450 nM
- half-life [37]: 3 h
- AUC(0-t) [38]: 9.83 µM·h
- Cmax [39]: 54 nM
- concentration at 1 h [40]: 1600 nM
- concentration at 7 h [41]: 190 nM
- concentration at 0.05 h [42]: 780 nM
- Cmax [43]: 110 nM
- Cmax [44]: 47 nM
- remaining at 10 min [45]: 85%
- concentration at 5 h [46]: 440 nM
- remaining at 10 min [47]: 87%
- Cmax [48]: 28 nM
- IC50 (JAK1/TYK2): 63 nM
- concentration at 3 h [49]: 530 nM
- Cmax [50]: 14 nM
